These results are taken from paper PMC11204543, “Halenaquinol Blocks Staphylococcal Protein A Anchoring on Cell Wall Surface by Inhibiting Sortase A in Staphylococcus aureus” (Marine Drugs, 2024).

Converted amounts (≈) assume the structure as drawn. “And” between values parts separate entries of the source, which are not always exact repeats. Equal entries are not always repeated. Structures can show the parent of a compound that is named as a salt. Where two headings read alike, the source gives them in different places.

Experiment [1] concerns the target T1, Recombinant SrtA from S. aureus ATCC6538p (Staphylococcus aureus, UniProt Q2FV99).
T1 construct: no tag is named in the print; made in house; host or cells: Escherichia coli
Nature of the experiment: SrtA inhibition assay (fluorescence-based enzymatic assay, Abz-LPETG-Dnp substrate). The experiment is classed as biochemical. The following applies: for IC50: SrtA IC50, recombinant SrtA from S. aureus ATCC6538p, mean ± SD (n = 3); for SrtA inhibitory activity in words: similar to that of quercetin. As to the method:
(§1) The SrtA inhibitory activity of compounds 1–6, along with that of a known SrtA inhibitor, quercetin [24], was evaluated in vitro using a fluorescence-based enzymatic assay. Recombinant SrtA from S. aureus ATCC6538p was expressed in Escherichia coli and was purified using nickel affinity chromatography. The cleavage of a synthetic peptide substrate by the SrtA enzyme emitted fluorescence, which was then measured. Table 1 presents the half maximal inhibitory concentration (IC50) values calculated from SrtA inhibition rates. […] As SrtA inhibitors act as anti-infective agents by disrupting bacterial pathogenesis without affecting microbial viability, minimum inhibitory concentration (MIC) values were examined to determine their effects on bacterial cell growth.
To determine the type of inhibition, kinetic studies were performed with halenaquinol at IC50 or twofold IC50 based on a Lineweaver and Burk plot (Figure 2A). Inhibitor constants were obtained by a Dixon plot (Figure 2B). […] Moreover, the binding of halenaquinol to SrtA was reversible because the enzyme activity was recovered by dialysis, excluding the possible existence of a covalent bond between inhibitor and enzyme.
The recombinant SrtA protein from S. aureus ATCC6538p was prepared using a previously described method. Each reaction comprised a 100 μL mixture containing a reaction buffer (50 mM Tris-HCl pH 7.5, 150 mM NaCl, and 5 mM CaCl2), 250 ng of synthetic fluorescent peptide substrate (Abz-LPETG-Dnp), 20 μg of SrtA, and varying concentrations of test samples. DMSO served as the negative control, while quercetin [24] was employed as the positive control. Test sample was dissolved in DMSO and then diluted with reaction buffer to yield a final DMSO concentration of 1%. The reaction mixture was aliquoted into a 96-well plate. Following the addition of SrtA, fluorescence intensity was determined using a microplate reader at excitation and emission wavelengths of 320 nm and 420 nm, respectively. The plate was then incubated for 1 h at 37 °C, and fluorescence intensity was measured. The effect of the inhibitor on SrtA was calculated as a percentage relative to the DMSO-treated control. The percentage of SrtA inhibition was calculated using the following equation: {1 − (Difference value of the test compound/Difference value of a negative control)} × 100. A 12-point, twofold serial dilution dose–response assay was performed independently in triplicate. The resultant dose–response concentration range was 128 to 0.1 μg/mL of inhibitor. Data were scaled to internal controls, and a four-parameter logistic model (SigmaPlot ver. 10.0) was used to fit the measured data and determine the IC50 values. In order to investigate the inhibition type and inhibition constant (Ki) values of halenaquinol, SrtA enzyme activity was monitored in various concentrations of substrate in the absence and presence of halenaquinol. All reactions were repeated three times and enzyme kinetics were evaluated using Lineweaver–Burk and Dixon plots.

Another experiment has as its system S. aureus ATCC6538p. Nature of the experiment: Antibacterial activity (CLSI broth dilution MIC). The experiment is classed as cell-based. The following applies: Staphylococcus aureus, 12 h. As to the method: as §1
An assessment of the antibacterial properties of the isolated compounds was conducted in accordance with the protocols provided by the Clinical and Laboratory Standard Institute (CLSI). The S. aureus ATCC6538p strain was cultivated overnight at 37 °C in Mueller–Hinton broth (MHB, BD Difco, Sparks, MD, USA). Subsequently, it was harvested using centrifugation, rinsed with sterilized deionized water, and adjusted to the optical density of a 0.5 McFarland standard (625 nm). Test compounds, initially dissolved in DMSO, were further diluted with MHB to achieve a range of 2-fold serial dilutions from 0.25 to 128 μg/mL (maintaining a final DMSO concentration of 1%). In a 96-well plate, 90 μL of the MHB containing the test compound were combined with 10 μL of broth inoculated with the bacterium (final bacterial concentration: 5 × 10^5 cfu/mL). Following a 12 h incubation at 37 °C, the MICs were determined as the lowest concentration at which bacterial growth was inhibited. Ampicillin (Duchefa, Amsterdam, The Netherlands) served as the reference standard.
(In general: Dilution methods test growth across graded concentrations, often in twofold steps.)

The subject of the next experiment is S. mutans SrtA. The following applies: cited from earlier work.
A further experiment deals with S. aureus SrtA. The following applies: cited from earlier work.

T1 sequence (Q2FV99 whole entry): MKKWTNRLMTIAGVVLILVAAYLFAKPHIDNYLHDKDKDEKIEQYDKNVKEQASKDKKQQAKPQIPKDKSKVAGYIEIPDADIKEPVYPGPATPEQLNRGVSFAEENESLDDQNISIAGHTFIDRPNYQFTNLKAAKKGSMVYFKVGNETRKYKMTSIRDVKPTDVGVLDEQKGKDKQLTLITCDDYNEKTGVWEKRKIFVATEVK

By IC50 is commonly meant the point on the concentration scale where inhibition reaches its midpoint. A word on the MIC: it is the least concentration at which growth counts as inhibited. In the case of `C[C@@]12CCC(=O)c3coc(c31)C(=O)c1cc3c(O)ccc(OS(=O)(=O)O)c3cc12` [Compound 1, halenaquinol sulfate], in experiment [1], the IC50 amounted to 103 µM and the “SrtA inhibitory activity in words” value is on record as “moderate inhibitory activities”. In the experiment on S. aureus ATCC6538p (ATCC6538P), the MIC is 309 µM and > 128 µg/mL.
On to `C[C@]12CCCc3coc(c31)C(=O)c1cc3c(cc12)C(=O)C=C(NCCS(=O)(=O)O)C3=O` [Compound 5, secoadociaquinone B], for which, in experiment [1], the IC50 turned out to be 131 µM and the “SrtA inhibitory activity in words” value is recorded as “moderate inhibitory activities”. For the same compound, the minimal inhibitory concentration (MIC) against S. aureus ATCC6538p (ATCC6538P) is 290 µM and > 128 µg/mL.
On to `O=c1c(O)c(-c2ccc(O)c(O)c2)oc2cc(O)cc(O)c12` [Quercetin, quercetin, reference compound], for which, in experiment [1], the IC50 was determined as 158 µM. The MIC with S. aureus ATCC6538p (S. aureus ATCC6538p growth, 37 °C, read-out: MIC) is > 424 µM and > 128 µg/mL.
Turning to `O=c1c(O)c(-c2cc(O)c(O)c(O)c2)oc2cc(O)cc(O)c12` [myricetin], the IC50 in the experiment with S. mutans SrtA was 15.48 µg/mL (≈ 48.6 µM).
Turning to `COc1cc2ccnc3c2c(c1O)N(C)C=C3` [isoaaptamine], in the experiment on S. aureus SrtA (S. aureus SrtA), the IC50 is 16.2 µM.
In the case of `O=S(=O)(O)c1ccccc1-c1nn2c(-c3ccncc3)nnc2s1` [compound 6e, 3-(4-pyridinyl)-6-(2-sodiumsulfonatephenyl)[1,2,4]triazolo [3,4-b][1,3,4]thiadiazole], the IC50 in the experiment with S. aureus SrtA (S. aureus SrtA) was 9.3 µM.
On to `C[C@]12CCCc3coc(c31)C(=O)c1cc3c(cc12)C(O)CCC3O` (some centres unmarked) [Compound 3, 13,14,15,16-tetrahydroxestoquinol], for which the IC50 in experiment [1] turned out to be 51.8 µM. Moreover, the MIC in the experiment on S. aureus ATCC6538p (ATCC6538P) is 395 µM and > 128 µg/mL.
As for `O=C(c1nc(-c2c[nH]c3cc(Br)ccc23)c[nH]1)c1c[nH]c2cc(O)ccc12` [bromotopsentin], in the experiment on S. aureus SrtA (S. aureus SrtA), the IC50 is 39.6 µM.
Take `O=C(NCCSSCCNC(=O)/C(Cc1ccc(O)c(Br)c1)=N/O)/C(Cc1ccc(O)c(Br)c1)=N/O` [psammaplin A]: in the experiment with S. aureus SrtA (S. aureus SrtA), the IC50 was 47.4 µM.
As to `C[C@@]12CCCc3coc(c31)C(=O)c1cc3c(O)ccc(OS(=O)(=O)O)c3cc12` [Compound 4, xestoquinol sulfate], the IC50 in experiment [1] is above 320 µM. For the same compound, the MIC in the experiment with S. aureus ATCC6538p (ATCC6538P) is 320 µM and > 128 µg/mL.
As to `C[C@H]1OC(=O)c2cc3c(cc21)[C@@]1(C)CC[C@@H](O)c2coc(c21)C3=O` [Compound 6, xestolactone A], the IC50 in experiment [1] came to 47.5 µM. In addition, in the experiment on S. aureus ATCC6538p (ATCC6538P), the MIC was 395 µM and > 128 µg/mL.
In the case of `CC1(C)S[C@@H]2[C@H](NC(=O)[C@H](N)c3ccccc3)C(=O)N2[C@H]1C(=O)O` [Ampicillin, reference compound], the MIC against S. aureus ATCC6538p (ATCC6538P) was 0.4 µM and 0.1 µg/mL.
On to `COc1ccc(/C(C#N)=C/c2cc(OC)ccc2OC)cc1` [(Z)-3-(2,5-dimethoxyphenyl)-2-(4-methoxyphenyl) acrylonitrile], for which the IC50 in the experiment with S. aureus SrtA (SrtA inhibition) is 9.2 µM. Further, in the experiment with S. aureus SrtA, the “manner of binding the enzyme” value was “reversible” and the type of inhibition entry is listed as “competitive inhibitor”.
